# Patent publication US20260191874A1, “FUSED AMINO PYRIMIDINE COMPOUNDS FOR TREATMENT OF AUTISM SPECTRUM DISORDER, OBSESSIVE COMPULSIVE DISORDER AND TICS” (Ovid Therapeutics Inc., priority 2024, published 2026)
# Assays:
# [1] = molecular target: T1, KCC4 (Homo sapiens, UniProt Q9Y666); assay: Tl+ flux assay in HEK-293 cells expressing KCC4; type: cell-based; conditions: read-out: concentration at which effects on KCC4 were seen (EC50 chart, FIG. 1G)
# T1 construct: expressed in transfected cells; host or cells: HEK-293
# T1 sequence (Q9Y666 1-1083): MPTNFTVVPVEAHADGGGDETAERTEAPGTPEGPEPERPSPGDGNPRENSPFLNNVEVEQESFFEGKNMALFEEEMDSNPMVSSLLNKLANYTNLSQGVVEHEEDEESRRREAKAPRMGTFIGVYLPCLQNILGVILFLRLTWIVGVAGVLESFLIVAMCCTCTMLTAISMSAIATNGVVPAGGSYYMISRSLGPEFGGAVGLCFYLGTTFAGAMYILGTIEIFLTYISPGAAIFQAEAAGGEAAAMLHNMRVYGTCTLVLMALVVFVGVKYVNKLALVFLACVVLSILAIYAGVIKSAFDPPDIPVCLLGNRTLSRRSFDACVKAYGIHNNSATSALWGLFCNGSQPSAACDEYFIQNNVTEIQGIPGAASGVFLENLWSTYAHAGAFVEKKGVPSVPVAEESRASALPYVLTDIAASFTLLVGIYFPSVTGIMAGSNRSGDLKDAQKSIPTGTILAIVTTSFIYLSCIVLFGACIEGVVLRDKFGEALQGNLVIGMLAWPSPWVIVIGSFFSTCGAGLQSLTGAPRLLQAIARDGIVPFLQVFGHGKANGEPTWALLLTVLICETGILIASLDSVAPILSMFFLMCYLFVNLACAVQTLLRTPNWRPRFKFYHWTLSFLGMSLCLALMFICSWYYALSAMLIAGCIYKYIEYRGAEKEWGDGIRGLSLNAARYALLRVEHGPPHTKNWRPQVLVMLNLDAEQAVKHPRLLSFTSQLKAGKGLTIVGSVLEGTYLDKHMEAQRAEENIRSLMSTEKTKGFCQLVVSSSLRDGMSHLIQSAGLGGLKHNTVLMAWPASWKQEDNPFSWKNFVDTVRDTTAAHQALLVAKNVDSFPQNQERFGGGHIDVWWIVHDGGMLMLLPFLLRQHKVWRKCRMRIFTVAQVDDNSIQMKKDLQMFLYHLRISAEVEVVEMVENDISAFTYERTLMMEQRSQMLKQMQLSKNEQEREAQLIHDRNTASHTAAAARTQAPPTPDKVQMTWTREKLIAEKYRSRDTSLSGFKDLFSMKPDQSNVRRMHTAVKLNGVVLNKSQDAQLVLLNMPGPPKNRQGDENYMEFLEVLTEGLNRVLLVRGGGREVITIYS
# Procedure: FLIPR TI Flux assay. HEK-293 cells were washed with HBSS, and then incubated with loading buffer containing TI sensitive fluorescent dye (https://www.moleculardevices.com), 20 μM bumetanide 20 μM ouabain and 2.5 mM probenecid for 1 h at room temperature (RT) under control conditions or with drugs in the dark using a FlexStation 3 microplate reader (Molecular Devices) and imaged […] for 30 min. Stimulus buffer was added containing 5 mM K^+/0.5 mM Tl^+ and cells were imaged every 1.5 over a 190 second time course The initial rate Tl^+ uptake (Relative Fluorescence Units (RFU) per second) was determined following addition of the stimulus buffer as outlined previously (Conway et al., 2017, supra) (Lee et al., 2022, supra).
# Several studies have shown that the activity and plasma membrane accumulation of KCC2 is potentiated via phosphorylation of S940, a process mediated by the activity of protein kinase C and protein phosphatase 1 (Lee et al., 2011, supra; Lee et al., J Biol Chem 282, 29777-29784 (2007); Moore et al., Proc. Natl. Acad. Sci. U.S.A 115, 10166-10171 (2018); Moore et al., Trends Neurosci. 40, 555-571 (2017); Silayeva et al., Proc. Natl. Acad. Sci. U.S.A 112, 3523-3528 (2015)). […] Compared to KCC2, effects on KCC3, KCC4, and NKCC1 were only seen at concentrations more than 35-fold that of KCC2 (≥100 μM) (FIG. 1G).
# [2] = PK studies: brain and plasma levels by LC-MS/MS; type: in vivo, mice
# [3] = tested on: hippocampus; assay: Neuronal cell death in the hippocampus of mice treated with diazepam; type: in vivo; conditions: Compound A and diazepam, compared to diazepam alone
smiles,measurement,setting,value
"C[C@@H]1CN(c2nc3c(c(Nc4ccc(C5CCCCC5)cc4)n2)COC3)CCO1 [Compound A, (R)—N-(4-cyclohexylphenyl)-2-(2-methylmorpholino)-5,7-dihydrofuro[3,4-d]pyrimidin-4-amine]",EC50,[1],≥ 100 µM
same,time by which accumulation in the brain was evident,"[2]; 25 mg/kg IV bolus, mice",≤ 30 min
same,time at which accumulation in brain was detected,[2]; 50 mg/kg SC,30 min
same,time of maximal concentration in brain,[2]; 50 mg/kg SC,4 h
same,neuronal cell death in the hippocampus,[3],significantly reduced
